For 59 compounds, IC50 results are on record in PubChem BioAssay AID2305 (GlaxoSmithKline (GSK), 2010).

For orientation: IC50 means the concentration at which inhibition is half-maximal. High values mean lower potency, low ones higher potency.

The assay concerns P. falciparum 3D7 growth, pLDH absorbance. Description: P. falciparum 3D7 growth inhibition, dose response, strain 3D7 (AID 2305).

As to `CN1CCC(NCc2cccc(-c3ccc(S(=O)(=O)NCCN4CCCC4)s3)c2)CC1`, the half-maximal inhibitory concentration (IC50) was 930 nM.
On to `Cc1ccc(-c2nc(NC(=O)Nc3ccc(C(F)(F)F)cc3)sc2C)cc1Cl`, for which the IC50 stood at 660 nM.
Take `CC(=O)Nc1ncc(C(=O)Nc2cccc(-c3ccc(-c4nc5ccc(F)cc5[nH]4)cc3)c2)s1`: the IC50 turned out to be 620 nM.
`CC(C)CNc1c2c(nc3cnn(-c4c5c(nc6cn[nH]c46)CCCC5)c13)CCCC2`: the half-inhibitory concentration (IC50) was found to be 790 nM.
As for `Cc1cc(N[C@@H](CC(C)C)C(=O)NCCc2ccccc2)nc(Nc2ccccc2)n1`, the half-maximal inhibitory concentration (IC50) was determined as 820 nM.
As for `NC1=NC(c2ccccc2)(c2ccccc2)C(=O)N1Cc1ccc(-c2cccnc2)cc1`, the figure is 700 nM; as for `O=C(Cc1cccc(Cl)c1)Nc1cccc(-c2c[nH]c3nc(Nc4cccc(OCc5ccccc5)c4)ncc23)c1`, 1040 nM.
`COc1ccc(C2CCN(C#N)C2)cc1OC1CCCC1` (centres undefined) had an IC50 of 230 nM. Compared with the last compound, the IC50 is about 4.5-fold lower.
The compound `CCOc1cc(C)c(C2CCN(CCCCNC(=O)c3ccc(NC(=O)c4ccc(Cl)cc4)cc3)CC2)cc1C` yielded an IC50 of 740 nM.
`COc1ccc(Nc2nc(NCc3ccc(-n4ccnc4)cc3)cc(-c3ccc(OC)cc3)n2)cc1` had a concentration for half-maximal inhibition (IC50) of 830 nM.
`Cc1nn(C)cc1C(C)Nc1nncc(-c2ccc(C(F)(F)F)cc2)n1` (centres undefined) displayed an IC50 of 250 nM. Compared with the last compound, the IC50 is about 3.3-fold lower.
Then `COc1ccc(-c2ccc(CN(C)C3CCC(NC(=O)c4cc5ccccc5[nH]4)CC3)cc2)cn1` (centres undefined), with 870 nM; and `C=CCn1c(SCC(=O)Nc2cc(Cl)ccc2Cl)nc2sc(C)cc2c1=O`, with 70 nM.
As for `CCC(=O)OC(CCN(CC)CC)(c1ccccc1)c1ccccc1`, the figure is 370 nM.
`NC1=NCN(OCc2ccc(Cl)c(Cl)c2)C(N)=N1` displayed an IC50 of 190 nM.
The compound `Cc1cc(C(=O)Nc2ccc3c(c2)CCN3C2CCN(Cc3cccc4cc[nH]c34)C2)no1` (centres undefined) displayed an IC50 of 190 nM. That is a sub-micromolar value.
`CNCCNCc1ccc(-c2cccc(-c3nc4ccc(C(F)(F)F)cc4[nH]3)c2)cc1` had an IC50 of 630 nM.
As for `CC(C)OC(=O)c1ccc(NC(=O)N[C@@H](Cc2ccc(O)cc2)C(=O)NC2CCC(CCN3[C@@H]4CC[C@H]3c3ccccc34)CC2)cc1` (some centres undefined), the figure is 830 nM.
As for `O=C(Nc1cccc(-c2cccc(-c3nc4ccc(C(F)(F)F)cc4[nH]3)c2)c1)c1ccoc1`, the IC50 was 280 nM. Compared with the last compound, the IC50 is about 3-fold lower.
As for `O=C(/C=C/c1ccc(Cl)c(Cl)c1)NCCCCCN1CCCC(CNC(=O)Nc2ccc(Oc3ccccc3)cc2)C1` (centres undefined), the figure is 780 nM.
The compound `FC(F)(F)c1ccc(COc2cc(Cl)ccc2Cn2ccnc2)cc1` gave a half-inhibitory concentration (IC50) of 650 nM. The IC50 values of the last two compounds are within 1.5-fold of each other.
In turn, `CC(=O)Nc1cc(C(=O)Nc2cccc(-c3csc(-c4nc5ccccc5[nH]4)c3)c2)ccc1C` returned an IC50 of 460 nM.
Take `NC1CCN(c2nc(NCCCc3ccc(O)cc3)nc(NCc3cccc4ccccc34)n2)CC1`: the half-maximal inhibitory concentration (IC50) worked out at 720 nM.
Consider `COc1ccc(-c2ccc(NC(=O)c3ccc(F)cc3)cc2)cc1CNC(C)C`, for which the half-maximal inhibitory concentration (IC50) was 760 nM.
On to `C[C@@H]1CN(C(c2cccc(O)c2)c2cccc(C(=O)N(C)c3cccc(F)c3)c2)[C@@H](C)CN1C(c1cccc(O)c1)c1cccc(C(=O)N(C)c2cccc(F)c2)c1` (some centres undefined), for which the IC50 stood at 920 nM.
In turn, `COc1cc2nccc(Nc3ccc4c(cnn4Cc4ccccc4F)c3)c2cc1OC` had an IC50 of 400 nM.
Then `O=[N+]([O-])c1cccc(C=NNc2ccnc3cc(F)ccc23)c1`, with 910 nM.
As for `CC(O)c1cccc(-c2ccc(Nc3ccnc4cc(-c5nccs5)ccc34)cc2)c1` (centres undefined), the figure is 1010 nM; as for `CC(=O)Nc1ccc(S(=O)(=O)Nc2ccc(Nc3nc(C)cc(N4CCCCC4)n3)cc2)cc1`, 780 nM.
Then `Cc1ccc(NC(=O)NC2CCN(CCCCCNC(=O)[C@@H]3C[C@H]3c3ccc(Cl)c(Cl)c3)CC2)cc1`, with 540 nM; and `CC1CCN(c2nc(C(=O)NCCc3ccc(Cl)c(Cl)c3)c(C(C)C)s2)CC1`, with 1930 nM; and `O=c1ccc2ccc(F)c3c2n1CC3CN1CCC(NCc2ccc(-c3cccc(Cl)c3)nc2)CC1` (centres undefined), with 990 nM.
Compound `Cc1[nH]c(C)c(-c2ccc(-c3ccc(OC(F)(F)F)cc3)nc2)c(=O)c1Br` returned a 50% inhibitory concentration (IC50) of 250 nM.
`CCCc1ccc(Cc2cnc3nc(N)nc(N)c3c2C)cc1` returned an IC50 of 280 nM.
`COc1ccccc1-c1cccc2c(NC(=O)Nc3ccc4nccc(N5CCN(C)CC5)c4c3)ccnc12` showed a 50% inhibitory concentration (IC50) of 1000 nM.
As for `O=C(Cc1c(-c2ccccc2)[nH]c2ccccc12)NC1CCC(CN2CCC(c3c[nH]c4ccccc34)CC2)CC1` (centres undefined), the figure is 480 nM; as for `CN1CCC(NCc2ccc(-c3cccc(S(=O)(=O)NCCc4ccccn4)c3)cc2)CC1`, 990 nM; as for `Cn1ccnc1CNC(=O)c1ccc(-c2cccc(-c3nc4ccc(F)cc4[nH]3)c2)cc1`, 980 nM.
Then `COc1ccc(CCNC(=O)c2ccccc2O)cc1-c1ccc(C(C)(C)C)cc1`, with 560 nM.
Consider `O=C(C=Cc1ccc([N+](=O)[O-])cc1)N1CCC(CCN2CCC(c3c[nH]c4ccccc34)CC2)CC1`, for which the IC50 was found to be 740 nM.
In turn, `O=C(Nc1ccc(Oc2ccccc2)cc1)N1CCC(CCN2CCC(c3c[nH]c4ccccc34)CC2)CC1` registered an IC50 of 800 nM.
As for `Nc1ncc(-c2ccc(NC(=O)Nc3cc(C(F)(F)F)ccc3F)cc2)c(N)n1`, the figure is 720 nM.
Then `CN1CCN(CCCN(Cc2csc(-c3ccc(CNCc4ccccc4)cc3)n2)C(=O)Nc2ccc3ccccc3c2)CC1`, with 1100 nM; and `O=S(=O)(c1csc2ccccc12)N(CCC(O)(C(F)(F)F)C(F)(F)F)Cc1cccc(O)c1`, with 360 nM.
In turn, `CC(C)OCCCNC(=O)c1nc(-c2cccc(C(F)(F)F)c2)sc1C(C)C` came in with a half-inhibitory concentration (IC50) of 1160 nM.
`CCCCNCc1cc(Cl)c2ccccc2c1O` yielded an IC50 of 460 nM. This IC50 is about 2.5-fold lower than that of the compound before.
As to `CC(=O)Nc1ccc(NC(=O)c2cc(-c3cc(Cl)ccc3O)n[nH]2)cc1`, the 50% inhibitory concentration (IC50) was found to be 180 nM.
As for `O=C(Nc1ccc(Cn2ncc(N3CCCNCC3)c(Cl)c2=O)cc1)Nc1ccc(SC(F)(F)F)cc1`, the half-inhibitory concentration (IC50) was 530 nM.
As for `O=C(Nc1cccc(CN2CCCN(CC3CC3)CC2)c1)c1ccc(Cl)c(Cl)c1`, the figure is 1030 nM.
In turn, `CN1CCN(c2ccnc3ccc(NC(=O)Cc4ccc(-c5ccncc5)c5ccccc45)cc23)CC1` yielded an IC50 of 200 nM.
As to `Cc1nc2ccc3ccc(CNc4ccc5c(c4)CN([C@@H](CCC(=O)O)C(=O)O)C5=O)cc3c2c(=O)[nH]1`, the half-inhibitory concentration (IC50) came to 160 nM.
Consider `NC(=O)c1ccc(-n2cnc3cc(F)ccc32)cc1OCc1ccccc1C(F)(F)F` (tested in a mixture with another compound), for which the concentration for half-maximal inhibition (IC50) was 360 nM. Against the preceding compound, the IC50 is about 2.2-fold higher.
Then `COc1ccc2nccc([C@@H](O)CN3CCC(NCc4cc5oc(=O)n(C)c5cc4F)CC3)c2c1`, with 660 nM; and `COc1cc(NC(=O)c2sc(-c3ccc(Cl)cc3)cc2NC(=O)c2ccncc2)ccc1OCCN1CCCC1`, with 30 nM; and `COc1cccc(Nc2nc(C)cc(NCc3ccc(-n4ccnc4)cc3)n2)c1`, with 960 nM.
As for `COc1cc(/C=C/C(=O)NCC(CCNc2cc(=O)c3ccccc3[nH]2)NCc2cc(Br)cc(Br)c2)cc(OC)c1` (centres undefined), the figure is 910 nM; as for `COc1cc2c(cc1OCCN1CCC(N3CCCC3)CC1)N(C(=O)/C=C/c1ccccc1Cl)CC2`, 660 nM; as for `O=C(NCc1cccc(OC(F)(F)F)c1)c1cnc2c(c1)nc(-c1cnc(-c3ccccc3)[nH]1)n2CCc1cnc[nH]1`, 680 nM.
In turn, `COCC(=O)N(Cc1ccccc1-c1cccc(CNCCc2ccccc2)c1)C1CCN(Cc2ccccc2)CC1` yielded a concentration for half-maximal inhibition (IC50) of 1100 nM.
